Assays:
[1] = tested on: blood glucose; assay: Insulin tolerance test; assay type: in vivo, mouse; conditions: i.p.; Humulin 6 nmol/kg, S597, S20D, W6A, F27A 9 nmol/kg, N20 27 nmol/kg; male mice
Experimental: Briefly, 2–3 months old male mice were fasted for 2 h and their blood glucose levels (T = 0) were measured with tail bleeding using a glucometer (AlphaTRAK). After then, mice were injected intraperitoneally with Humulin (6 nmol/kg body weight), S597 (9 nmol/kg), S597-S20D (9 nmol/kg), S597-W6A (9 nmol/kg), S597-F27A (9 nmol/kg), or S597-N20 (27 nmol/kg), and their blood glucose levels were measured at the indicated time points after injection.

[2] = tested on: IR R14A; assay: Auto-phosphorylation of IR in 293FT cells expressing IR R14A; assay type: cell-based, human
Experimental: (§1) For the activation assay, the short isoform of human IR in pCS2-MYC was used as described previously[20],[49]. Plasmid transfections into 293FT cells were performed with Lipofectamin^TM 2000 (Invitrogen).
(§2) The cells were incubated with the lysis buffer B [50 mM Hepes pH 7.4, 150 mM NaCl, 10% Glycerol, 1% Triton X-100, 1 mM EDTA, 100 mM sodium fluoride, 2 mM sodium orthovanadate, 20 mM sodium pyrophosphate, 0.5 mM dithiothreitol (DTT), 2 mM phenylmethylsulfonyl fluoride (PMSF)] supplemented with cOmplete Protease Inhibitor Cocktail (Roche), PhosSTOP (Sigma), and 25 U/ml turbo nuclease (Accelagen) on ice for 1 h. After centrifuging at 20,817×g at 4 °C for 10 min, the concentrations of cell lysate were measured using Micro BCA Protein Assay Kit (Thermo Scientific). About 50–60 μg total proteins were analyzed by SDS-PAGE and quantitative Western blotting. […] For quantitative western blots, anti-rabbit immunoglobulin G (IgG) (H + L) (WB, 1:5000; Dylight 800 conjugates, Cat. #5151) and anti-mouse IgG (H + L) (WB, 1:5000; Dylight 680 conjugates, Cat. #5470) (Cell Signaling) were used as secondary antibodies. […]

[3] = tested on: IR F497A; assay: Auto-phosphorylation of IR in 293FT cells expressing IR F497A; assay type: cell-based, human
Experimental: as §1, §2

[4] = tested on: endogenous murine IR; assay: IR signaling (pY IR, pAKT, pERK) in GFP MEFs, tamoxifen-inducible IR knockout (Fig. S8); assay type: cell-based, mouse; conditions: tamoxifen treatment, high concentration of insulin
Experimental: IR^F/F mice (Jackson #006955[71]) were crossed with CAG-CRE/ERT mice (Jackson #004682) to generate IR^F/F; CRE-ERT mice. The IR^F/F; CRE-ERT mice were backcrossed nine generations to C57BL/6 (Jackson #000664). The MEFs from IR^F/F; CRE-ERT mice were isolated as described earlier with some modifications. E14.5 embryos were minced with sterile scalpels and incubated with 0.25% trypsin-EDTA for 10 min at 37 °C and a 5% CO2 incubator. Fresh 0.25% trypsin-EDTA was added. After 10 min incubation, cells were put into fresh DMEM containing supplemented 10% (v/v) FBS, 2 mM L-glutamine, 55 μM β-mercaptoethanol, and 1% penicillin/streptomycin, and then centrifuged at 290×g for 5 min. […]
The cells were incubated with the lysis buffer B [50 mM Hepes pH 7.4, 150 mM NaCl, 10% Glycerol, 1% Triton X-100, 1 mM EDTA, 100 mM sodium fluoride, 2 mM sodium orthovanadate, 20 mM sodium pyrophosphate, 0.5 mM dithiothreitol (DTT), 2 mM phenylmethylsulfonyl fluoride (PMSF)] supplemented with cOmplete Protease Inhibitor Cocktail (Roche), PhosSTOP (Sigma), and 25 U/ml turbo nuclease (Accelagen) on ice for 1 h. After centrifuging at 20,817×g at 4 °C for 10 min, the concentrations of cell lysate were measured using Micro BCA Protein Assay Kit (Thermo Scientific). About 50–60 μg total proteins were analyzed by SDS-PAGE and quantitative Western blotting. […]

[5] = tested on: IR D707A; assay: Auto-phosphorylation of IR in 293FT cells expressing IR D707A; assay type: cell-based, human
Experimental: as §1, §2

[6] = tested on: IR D496K; assay: Auto-phosphorylation of IR in 293FT cells expressing IR D496K; assay type: cell-based, human
Experimental: as §1, §2

[7] = tested on: IR; assay: IR signaling (pY IR, pAKT, pERK) in primary mouse hepatocytes (Fig. S9); assay type: cell-based
Experimental: Primary hepatocytes were isolated from 2-month-old male mice with a standard two-step collagenase perfusion procedure as described earlier with some modifications[24],[48],[49]. […] After 1–2 s upon the appearance of white spots in the liver, we cut the portal vein with scissors to wash out blood, and then the liver was perfused with 30 ml of Liver Digest Medium (Thermo Scientific, Cat. #17703034). The dissected liver was gently washed with low-glucose DMEM and transferred to a sterile culture dish containing 15 ml Liver Digest Medium. The isolated liver cells were filtered through the 70 μm cell strainer into a 50 ml tube. After centrifuging at 50×g for 5 min at 4 °C, cells were washed with cold low-glucose DMEM three times. […] After 2 h, the medium was changed to serum-free low-glucose DMEM.
as §2

[8] = tested on: IR K484E/L552A; assay: Auto-phosphorylation of IR in 293FT cells expressing IR K484E/L552A; assay type: cell-based, human; conditions: 10 nM, 10 min
Experimental: as §1, §2

[9] = tested on: IR; assay: Functional IR levels in liver after treatment (Fig. S10e,f); assay type: in vivo, mouse
Experimental: as §2
For the oral glucose tolerance test, mice were fasted for 6 h and their blood glucose levels (T = 0) were measured with tail bleeding using a glucometer (AlphaTRAK). […] Blood glucose levels were measured at the indicated time points after glucose administration. […]

## insulin: native IR ligand used as comparator; Humulin in the in vivo tests
[1]
  blood glucose lowering: significantly reduced
[2]
  IR activation: reduced insulin-dependent IR activation
[3]
  IR activation: can be activated by insulin but with lesser efficiency than IR WT
[4]
  downstream signaling through residual IR: could activate downstream signaling
[5]
  IR activation: reduced insulin-dependent IR activation
[6]
  IR activation: reduced insulin-dependent IR activation
[7]
  phosphorylation of AKT, primary hepatocytes: increased the levels of pY IR, pAKT, and pERK similarly
  phosphorylation of ERK, primary hepatocytes: increased the levels of pY IR, pAKT, and pERK similarly
  phosphorylation of IR, primary hepatocytes: increased the levels of pY IR, pAKT, and pERK similarly
[8]
  IR activation: could not be activated efficiently
[9]; 50U/kg, i.p., 3 consecutive days
  IR downregulation: not significantly downregulated
[9]; one hour after insulin 0.1U/kg or S597 0.15U/kg
  IR downregulation: not significantly downregulated

Reference: paper PMC9508239 (Nature Communications, 2022)
